Assay results published in PubChem BioAssay (NCI).
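Protocol summary: plate cells (96-well), add compound at 5 concentrations, incubate 48 h, interpolate endpoints linearly. Definition used: TGI = concentration required for complete inhibition of growth.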

What was measured:
Assay in all cases: NCI anticancer screen, dose series, 48 h
[1] = tested on: NCI-H522 lung
[2] = tested on: SNB-75 CNS
[3] = tested on: UACC-62 melanoma
[4] = tested on: MDA-N
[5] = tested on: A498 renal
[6] = tested on: SK-MEL-5 melanoma
[7] = tested on: NCI-H23 lung
[8] = tested on: TK-10 renal
[9] = tested on: SK-MEL-2 melanoma
[10] = tested on: 786-0 renal
[11] = tested on: CCRF-CEM leukemia
[12] = tested on: HCC-2998 colon
[13] = tested on: HS 578T breast
[14] = tested on: MOLT-4 leukemia
[15] = tested on: HCT-116 colon
[16] = tested on: SR leukemia
[17] = tested on: NCI/ADR-RES ovarian
[18] = tested on: MDA-MB-435
[19] = tested on: MDA-MB-231 breast
[20] = tested on: MCF7 breast

Compound: CC[C@@]1(O)C(=O)OCc2c1cc1n(c2=O)Cc2c-1nc1ccccc1c2/C=N\NC(=O)C(N)CO (stereo not given in full)
- TGI [1]: > 42.2 µM
- TGI [2]: 0.312 µM
- TGI [3]: 0.419 µM
- TGI [4]: > 100 µM
- TGI [5]: 12.2 µM
- TGI [6]: 2.55 µM
- TGI [7]: 5.38 µM
- TGI [8]: > 100 µM
- TGI [9]: > 100 µM
- TGI [10]: 13 µM
- TGI [11]: > 19.7 µM
- TGI [12]: > 100 µM
- TGI [13]: > 100 µM
- TGI [14]: 1.58 µM
- TGI [15]: 22.8 µM
- TGI [16]: 3.59 µM
- TGI [17]: 9.2 µM
- TGI [18]: > 31.6 µM
- TGI [19]: > 100 µM
- TGI [20]: 21.3 µM

Compound: CC(=O)OC/C=C/[C@H](O[Si](C)(C)C(C)(C)C)[C@@H](O)/C=C/COC(C)=O
- TGI [1]: > 100 µM
- TGI [2]: > 100 µM
- TGI [3]: > 100 µM
- TGI [4]: > 100 µM
- TGI [5]: > 100 µM
- TGI [6]: > 100 µM
- TGI [7]: > 100 µM
- TGI [8]: > 100 µM
- TGI [9]: > 100 µM
- TGI [10]: > 100 µM
- TGI [11]: 52 µM
- TGI [12]: > 100 µM
- TGI [13]: > 100 µM
- TGI [14]: 54.8 µM
- TGI [15]: > 100 µM
- TGI [16]: 86.2 µM
- TGI [17]: > 100 µM
- TGI [18]: > 100 µM
- TGI [19]: > 100 µM
- TGI [20]: > 100 µM

Compound: O=C(c1ccccc1)n1c(Cc2ccccc2)nc2cc(C34CC5CC(CC(C5)C3)C4)ccc21
- TGI [1]: > 100 µM
- TGI [2]: > 100 µM
- TGI [3]: > 100 µM
- TGI [4]: > 100 µM
- TGI [5]: > 100 µM
- TGI [6]: 56.5 µM
- TGI [7]: > 100 µM
- TGI [8]: > 100 µM
- TGI [9]: > 100 µM
- TGI [10]: > 100 µM
- TGI [11]: > 100 µM
- TGI [12]: > 100 µM
- TGI [13]: > 100 µM
- TGI [14]: > 100 µM
- TGI [15]: > 100 µM
- TGI [16]: > 100 µM
- TGI [17]: > 100 µM
- TGI [18]: > 100 µM
- TGI [19]: > 100 µM
- TGI [20]: 90 µM
